Patent US20260207600A1, “METHODS OF TREATMENT WITH MYOSIN MODULATOR” (MYOKARDIA, INC., priority 2019, published 2026)
Read-outs that look alike come from different tables or passages of the source.

How the values were obtained:
[1] = Solubility estimates at ambient temperature; format: physicochemical; settings: for solubility: organic solvent or mixture, thermodynamic from solid, read-out: solubility estimate
Protocol: Solubilities were calculated based on the total solvent used to give a solution; actual solubilities may be greater because of the volume of solvent portions utilized or a slow rate of dissolution. […] If dissolution occurred at the first aliquot, the value was reported as “>”.
Solubility estimates at ambient temperature were performed in 25 solvents and solvent systems using Form A (Lot 2-4) (Table 13.3).

[2] = system: Yucatan mini-pigs with a heterozygous MYH7 R403Q mutation; assay: Chronic MYK-581 in mini-pig genetic model of non-obstructed HCM (cMR imaging, invasive hemodynamics, dobutamine challenge); format: in vivo
Protocol: The mini-pigs were treated for at least 12 weeks and were evaluated as shown in Schematic 1 below. […] After ~14 weeks of treatment, all pigs underwent in vivo cMR imaging for the assessment of LV function and geometry, as well as of myocardial composition via of Late Gadolinium Enhancement (LGE) and T1 mapping techniques including extracellular volume (ECV) assessments. In addition, a subset of animals (MYK: n=6, CTRL: n=5) also underwent terminal invasive hemodynamics assessments, including cardiac output (CO, via thermodilution), load-independent systolic/diastolic function (via LV pressure-volume relationships), and β-adrenergic (β-AR) cardiac reserve (via dobutamine at 5 μg/kg/min IV).
The mini-pig model can be obtained following the method disclosed in a presentation entitled “A Minipig Genetic Model of Hypertrophic Cardiomyopathy Uncovers the Pathophysiological Mechanisms of Disease Evolution”, by E. Green et al., at University of Iowa, Carver College of Medicine.

[3] = system: conscious Sprague-Dawley rats; assay: Positive inotropic challenge (dobutamine, levosimendan) after supra-therapeutic mavacamten, echocardiography; format: in vivo, rat; settings: healthy rats exposed to a supra-therapeutic dose of mavacamten
Protocol: Methods: The responsiveness of mavacamten-induced cardio-depression to positive inotropic challenges was assessed in a set of conscious Sprague-Dawley rats. In these animals, functional reserve was assessed via either dobutamine (+DOB, 10 μg/kg/min IV for 10 min, n=7) or levosimendan (+LEVO, 0.3 μmol/kg IV over […]; n=6) challenges given 3 hrs following a single-dose administration of MAVA (at 4 mg/kg, PO). Cardiac function/geometry were recorded and compared at three separate time-points/days: prior to dosing (i.e., at baseline) and at 3 hrs post-dosing both before as well as during the inotropic challenge; in order to account for the levosimendan-induced changes in loading conditions, an additional echocardiographic examination was performed following acute preload-restoration in LEVO-treated rats (+LEVO/F, 0.9% NaCl at 30 mL/kg/hr IV).
In these experiments, left-ventricular fractional shortening (FS), an index of systolic performance, as well as LV dimensions/volumes and heart rates were measured using a high-frequency transducer and parasternal long-axis transthoracic views (Vevo2100, VisualSonic). FS was defined as the end-diastole normalized change in internal dimensions/diameter of the left ventricle between end-systole (LVESd) and end-diastole (LVEDd) (i.e., FS=100·[LVEDd−LVESd]/LVEDd). LV volumes were derived assuming a Teichholz model (LVV=7·[2.4+LVid]−1·LVid3).

CC(C)n1c(=O)cc(N[C@@H](C)c2ccccc2)[nH]c1=O [Form A, (S)-3-isopropyl-6-((1-phenylethyl)amino)-pyrimidine-2,4 (1H,3H)-dione]
solubility estimate ([1]; methanol, THF, THF/water (90/10, vol/vol) and DMSO/water (90/10, vol/vol)): limited solubility
solubility ([1]; HFIPA and various mixtures with DMSO, NMP and DMF): ≥ 20 mg/mL
solubility ([1]; anisole, isopropanol, MIBK, nitromethane, and toluene): ≤ 1 mg/mL

CC(C)n1c(=O)cc(N[C@@H](C)c2cccc(F)c2)[nH]c1=O [MYK-581, (S)-6-((1-(3-fluorophenyl)ethyl)amino)-3-isopropylpyrimidine-2,4 (1H,3H)-dione]
LV stiffness ([2]; control 3.5±0.3): 1.3±0.2 mmHg/mL
LV end-diastolic pressures ([2]; control 23±4): 9±1 mmHg
left-atrial volumes ([2]; control 29±4): 16 ± 1 mL
ECV ([2]; control 32±2): 27±1%
LV mass ([2]; control 66±5): 51 ± 4 g
time-constants of relaxation ([2]; control 71±5): 45 ± 3 ms
CO increase under β-AR challenge ([2]; dobutamine challenge, control +26±2): +60±8%
β-AR stroke-volume recruitment ([2]; dobutamine challenge, control −14±6): +15±4%
mortality ([2]; end of the study (~5 months), CTRL 40%): 0%
EF ([2]; ~14 weeks of treatment, cMR, control 65±2): 59±2%

CC(CCc1ccc(O)cc1)NCCc1ccc(O)c(O)c1 (stereo not drawn) [dobutamine]
echocardiography-derived indices of systolic function after supra-therapeutic mavacamten [3]: successfully rescued/restored

C[C@@H]1CC(=O)NN=C1c1ccc(NN=C(C#N)C#N)cc1 [levosimendan]
echocardiography-derived indices of systolic function after supra-therapeutic mavacamten [3]: successfully rescued/restored
